Results as given in paper doi:10.1101/2021.09.28.462122v1 (biorxiv, 2021).

Biological target: T1, AtGDH (Aspergillus terreus NADP+-specific glutamate dehydrogenase) (Aspergillus terreus, UniProt T2D1F5)
T1 sequence (T2D1F5 1-460): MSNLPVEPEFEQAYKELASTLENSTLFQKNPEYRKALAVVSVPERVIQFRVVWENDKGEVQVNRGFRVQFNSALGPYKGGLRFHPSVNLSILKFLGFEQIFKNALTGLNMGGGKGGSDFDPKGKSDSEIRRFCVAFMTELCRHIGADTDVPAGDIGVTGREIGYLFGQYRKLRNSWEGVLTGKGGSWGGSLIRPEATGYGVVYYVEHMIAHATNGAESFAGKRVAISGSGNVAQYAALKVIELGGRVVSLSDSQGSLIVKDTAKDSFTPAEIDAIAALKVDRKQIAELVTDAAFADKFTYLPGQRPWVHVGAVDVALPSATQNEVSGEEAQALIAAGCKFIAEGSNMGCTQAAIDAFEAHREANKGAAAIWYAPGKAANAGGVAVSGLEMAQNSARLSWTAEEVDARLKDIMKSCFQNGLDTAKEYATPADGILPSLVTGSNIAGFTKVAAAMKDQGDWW
Assay: NADPH oxidation at […] nm, reductive amination
Type: biochemical

Ki [mM]	Compound
19.5	O=C(O)CC(=O)O [malonate]
50.8	O=C(O)C(O)C(O)C(=O)O (centres unmarked) [tartrate]
23.2	O=C(O)/C=C/C(=O)O [fumarate]
36.2	O=C(O)/C=C\C(=O)O [maleate]
39.1	O=C(O)CCC(=O)O [succinate]
